Laboratory results taken from patent US8969554B2, “6-acyl-1,2,4-triazine-3,5-dione derivative and herbicides” (Kumiai Chemical Industry Co., Ltd., priority 2010, dated 2015).

Assays:
Assay type in all cases: in vivo
Echinochloa crus-galli [1] = test: Herbicidal activity by field soil treatment (Test example 2); set-up: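 index 0 to 10 in 10% steps of herbicidal effect with 10 meaning complete death and 0 below 10%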; conditions: 1000 g effective component per hectare, day 21 after the treatment
In short: (§1)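 Field soil filled 80 cm^2 pots; seeds were sown, covered, and the soil surface treated with a small sprayer. Dose: 1000 g/ha of active component from a water-diluted wettable powder, applied in 1000 L/ha. Greenhouse cultivation followed, with evaluation at day 21.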

Indian millet [2] = test: as above; set-up: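 index 0 to 10 in 10% steps of herbicidal effect with 10 meaning complete death and 0 below 10%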; conditions: 1000 g effective component per hectare, day 21 after the treatment
In short: as §1

foxtail = test: as above; conditions: 1000 g effective component per hectare, day 21 after the treatment;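 further: index 0 to 10 in 10% steps of herbicidal effect with 10 meaning complete death and 0 below 10%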
Description: [table] Test for Determining Herbicidal Activity by Field Soil Treatment A 80 cm^2 wide plastic pot was filled with a field soil and seeds of each of Echinochloa crus-galli, foxtail, Indian millet, and A. retroflexus were sowed and then covered with soil. The wettable powder produced with reference to the Formulation example 1 was diluted water, and applied on the soil surface by using a small sprayer in an amount of 1000 liters per hectare so that the effective component is 1000 g per hectare. After that, the plants were cultivated in a greenhouse, and on day 21 after the treatment, evaluation was made by the criteria described in Table 72 for determining the herbicidal effects.

A. retroflexus [3] = test: Herbicidal activity by field foliage treatment (Test example 3); set-up: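 index 0 to 10 in 10% steps of herbicidal effect with 10 meaning complete death and 0 below 10%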; conditions: 1000 g effective component per hectare, day 14 after the treatment
In short: (§2)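 Seeds sown in field soil and kept 2 weeks in a greenhouse; foliage of the whole plant then sprayed with diluted wettable powder (1000 L/ha, 1000 g a.i./ha); plants returned to the greenhouse and scored for herbicidal effect on day 14.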

Indian millet [4] = test: as above; set-up: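 index 0 to 10 in 10% steps of herbicidal effect with 10 meaning complete death and 0 below 10%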; conditions: 1000 g effective component per hectare, day 14 after the treatment
In short: as §2

Echinochloa crus-galli [5] = test: as above; set-up: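 index 0 to 10 in 10% steps of herbicidal effect with 10 meaning complete death and 0 below 10%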; conditions: 1000 g effective component per hectare, day 14 after the treatment
In short: (§3)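 Herbicidal effect was rated on day 14 following a foliar spray of 1000 g active ingredient per hectare, applied as water-diluted wettable powder at 1000 L/ha. Plants had been raised for 2 weeks in field soil under greenhouse conditions before spraying.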

Echinochloa oryzicola = test: Herbicidal activity by paddy field soil treatment (Test Example 1); set-up: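 index 0 to 10 in 10% steps of herbicidal effect with 10 meaning complete death and 0 below 10%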; conditions: 1000 g of effective component per hectare, evaluated on day 21 after the treatment, criteria of Table 72
In short: (§4)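 Paddy soil was watered and puddled, seeded, then flooded to 3 cm. One day later the formulation, diluted with water, went onto the water surface at 1000 g/ha of active ingredient. After 21 days in the greenhouse, effects were scored.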

Monochoria vaginalis = test: as above; set-up: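 index 0 to 10 in 10% steps of herbicidal effect with 10 meaning complete death and 0 below 10%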; conditions: 1000 g of effective component per hectare, evaluated on day 21 after the treatment, criteria of Table 72
In short: as §4

Scirpus juncoides Rocxb. = test: as above; set-up: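 index 0 to 10 in 10% steps of herbicidal effect with 10 meaning complete death and 0 below 10%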; conditions: applied on water surface, 1000 g of effective component per hectare, day 21 after the treatment
In short: as §4

A. retroflexus [6] = test: Herbicidal activity by field soil treatment (Test example 2); set-up: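 index 0 to 10 in 10% steps of herbicidal effect with 10 meaning complete death and 0 below 10%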; conditions: 1000 g effective component per hectare, day 21 after the treatment
In short: as §1

Setaria viridis = test: Herbicidal activity by field foliage treatment (Test example 3); conditions: 1000 g effective component per hectare, day 14 after the treatment;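 further: index 0 to 10 in 10% steps of herbicidal effect with 10 meaning complete death and 0 below 10%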
In short: as §3

Compound | herbicidal effect index, Echinochloa crus-galli (Echinochloa crus-galli [1]) | herbicidal effect index, Abutilon theophrasti (Indian millet [2]) | herbicidal effect index, Setaria viridis (foxtail) | herbicidal effect index, Amaranthus retroflexus (A. retroflexus [3]) | herbicidal effect index, Abutilon theophrasti (Indian millet [4]) | herbicidal effect index, Echinochloa crus-galli (Echinochloa crus-galli [5]) | Herbicidal effects index number, Echinochloa oryzicola (Echinochloa oryzicola) | Herbicidal effects index number, Monochoria vaginalis (Monochoria vaginalis) | herbicidal effect index, S. juncoides Rocxb. (Scirpus juncoides Rocxb.) | herbicidal effect index, Amaranthus retroflexus (A. retroflexus [6]) | herbicidal effect index, Setaria viridis (Setaria viridis)
COc1cccc(OC)c1-n1c(=O)c(C(=O)C2=C(O)CCCC2=O)nn(C)c1=O [Compound I-98] | 7 | 7 | 7 | 8 | 9 | 7 |  |  |  |  | 
COc1c(Cl)cc(-n2c(=O)c(C(=O)C3=C(O)CCCC3=O)nn(C)c2=O)cc1Cl [I-299] | 9 | 10 | 10 | 10 | 9 | 8 | 10 | 10 | 10 | 10 | 
Cc1ccc(-n2c(=O)c(C(=O)C3=C(O)CCCC3=O)nn(C)c2=O)cc1C [I-87] | 9 | 9 | 6 | 10 | 9 | 9 | 9 | 10 | 10 | 9 | 
Cc1c(Cl)cccc1-n1c(=O)c(C(=O)C2=C(O)CCCC2=O)nn(C)c1=O [I-136] |  | 9 | 8 | 10 | 9 | 9 | 9 | 10 | 10 | 9 | 9
Cn1nc(C(=O)C2=C(O)CCCC2=O)c(=O)n(-c2cccc(-c3ccccc3)c2)c1=O [I-270] | 8 |  | 7 | 10 | 9 | 9 | 8 | 8 | 8 | 10 | 
COc1cc(-n2c(=O)c(C(=O)C3=C(O)CCCC3=O)nn(C)c2=O)ccc1F [I-111] | 9 | 9 | 7 | 10 | 10 | 10 | 10 | 10 | 10 | 10 | 
Cn1nc(C(=O)C2=C(O)CCCC2=O)c(=O)n(CC(=O)OC(C)(C)C)c1=O [I-294] | 9 | 9 | 7 | 8 | 7 | 9 | 9 | 9 | 9 | 10 | 
COc1cc(-n2c(=O)c(C(=O)C3=C(O)CCCC3=O)nn(C)c2=O)ccc1Cl [I-131] | 9 | 9 | 7 | 10 | 10 | 10 | 9 | 10 | 10 | 10 | 
COc1ccc(-n2c(=O)c(C(=O)C3=C(O)CCCC3=O)nn(C)c2=O)cc1F [I-99] | 8 | 9 | 6 | 10 | 10 | 9 | 10 | 10 | 10 | 10 | 
Cc1cc(I)ccc1-n1c(=O)c(C(=O)C2=C(O)CCCC2=O)nn(C)c1=O [I-283] | 9 | 9 | 8 | 8 | 8 | 8 | 10 | 10 | 10 | 10 | 
CC(C)n1nc(C(=O)C2=C(O)CCCC2=O)c(=O)n(-c2ccccc2)c1=O [I-260] | 10 | 10 | 5 | 10 | 10 | 8 | 10 | 10 | 10 | 10 | 
Cn1nc(C(=O)C2=C(O)CCCC2=O)c(=O)n(-c2ccc(Cl)nc2)c1=O [I-280] | 9 | 9 | 8 | 10 | 9 | 9 | 10 | 10 | 10 | 10 | 
CC(Cn1c(=O)c(C(=O)C2=C(O)CCCC2=O)nn(C)c1=O)=NOC(C)C [I-479] | 9 | 10 |  | 10 | 9 | 9 | 10 | 10 | 10 | 10 | 7
